Laboratory results as given in patent publication US9938281B2 (Merck Sharp & Dohme Corp., priority 2012, dated 2018).

Legend:
PI3K-delta = biological target: T1, PI3K-delta (Homo sapiens, UniProt O00329); assay: HTRF PI3K biochemical assay, delta isoform; conditions: form screened (neutral or TFA salt) given, read-out: PI3Kdelta IC50
T1 construct: purchased Upstate; Millipore 14-604

PI3K-alpha = biological target: T2, PI3K-alpha (Homo sapiens, UniProt P42336); assay: HTRF PI3K biochemical assay, alpha isoform; conditions: ratio PI3K-alpha IC50 value / PI3K-delta IC50 value
T2 construct: purchased Upstate; Millipore 14-602
T2 sequence (P42336 whole entry, canonical isoform): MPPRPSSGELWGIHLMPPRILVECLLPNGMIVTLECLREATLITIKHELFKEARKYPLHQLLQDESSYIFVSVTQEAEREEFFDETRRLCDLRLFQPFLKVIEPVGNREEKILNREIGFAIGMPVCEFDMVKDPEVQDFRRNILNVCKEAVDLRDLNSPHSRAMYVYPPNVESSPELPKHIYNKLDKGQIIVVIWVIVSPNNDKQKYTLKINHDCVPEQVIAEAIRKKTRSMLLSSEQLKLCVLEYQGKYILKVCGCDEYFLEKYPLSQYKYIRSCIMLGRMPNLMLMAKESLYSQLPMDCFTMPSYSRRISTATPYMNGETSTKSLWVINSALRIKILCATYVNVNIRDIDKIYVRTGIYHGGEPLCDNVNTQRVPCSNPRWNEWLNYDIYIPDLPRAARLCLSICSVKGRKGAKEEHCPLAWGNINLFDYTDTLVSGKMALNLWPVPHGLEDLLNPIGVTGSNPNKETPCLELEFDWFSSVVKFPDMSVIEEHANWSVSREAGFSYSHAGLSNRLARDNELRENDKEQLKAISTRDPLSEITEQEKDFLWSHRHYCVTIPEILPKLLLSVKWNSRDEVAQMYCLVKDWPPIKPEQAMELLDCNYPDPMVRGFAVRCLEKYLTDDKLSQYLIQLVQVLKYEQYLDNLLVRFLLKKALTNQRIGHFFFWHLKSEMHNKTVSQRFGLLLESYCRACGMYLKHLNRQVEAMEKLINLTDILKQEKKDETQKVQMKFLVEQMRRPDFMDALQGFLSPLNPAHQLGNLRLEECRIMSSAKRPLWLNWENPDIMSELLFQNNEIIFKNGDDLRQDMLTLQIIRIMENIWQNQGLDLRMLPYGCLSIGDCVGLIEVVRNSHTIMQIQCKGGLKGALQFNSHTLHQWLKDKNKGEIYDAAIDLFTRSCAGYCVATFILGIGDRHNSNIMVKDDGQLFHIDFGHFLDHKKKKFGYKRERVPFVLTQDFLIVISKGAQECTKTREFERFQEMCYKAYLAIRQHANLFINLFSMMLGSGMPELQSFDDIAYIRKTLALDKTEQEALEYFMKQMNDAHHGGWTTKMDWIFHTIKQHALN
T2 sequence (P27986 whole entry partner, canonical isoform): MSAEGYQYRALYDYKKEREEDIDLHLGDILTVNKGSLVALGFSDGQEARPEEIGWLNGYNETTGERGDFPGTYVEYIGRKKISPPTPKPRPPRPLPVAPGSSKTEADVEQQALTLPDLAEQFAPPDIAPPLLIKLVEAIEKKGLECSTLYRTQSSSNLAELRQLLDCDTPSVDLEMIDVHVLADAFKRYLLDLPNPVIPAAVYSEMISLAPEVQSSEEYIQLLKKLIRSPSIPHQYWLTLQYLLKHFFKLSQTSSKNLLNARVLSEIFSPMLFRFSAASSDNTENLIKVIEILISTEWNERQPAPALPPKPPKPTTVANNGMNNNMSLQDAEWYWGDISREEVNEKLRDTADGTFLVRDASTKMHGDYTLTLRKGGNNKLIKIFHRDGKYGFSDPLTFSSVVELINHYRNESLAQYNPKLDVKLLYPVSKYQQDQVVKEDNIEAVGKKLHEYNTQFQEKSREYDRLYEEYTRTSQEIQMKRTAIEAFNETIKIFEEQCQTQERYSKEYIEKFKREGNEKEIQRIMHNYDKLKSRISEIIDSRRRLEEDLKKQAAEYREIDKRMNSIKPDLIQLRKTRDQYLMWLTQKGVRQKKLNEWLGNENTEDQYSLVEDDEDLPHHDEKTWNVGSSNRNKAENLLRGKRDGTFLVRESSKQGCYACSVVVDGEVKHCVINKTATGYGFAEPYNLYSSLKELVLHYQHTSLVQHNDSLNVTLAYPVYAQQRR

T1 sequence (O00329 whole entry, canonical isoform): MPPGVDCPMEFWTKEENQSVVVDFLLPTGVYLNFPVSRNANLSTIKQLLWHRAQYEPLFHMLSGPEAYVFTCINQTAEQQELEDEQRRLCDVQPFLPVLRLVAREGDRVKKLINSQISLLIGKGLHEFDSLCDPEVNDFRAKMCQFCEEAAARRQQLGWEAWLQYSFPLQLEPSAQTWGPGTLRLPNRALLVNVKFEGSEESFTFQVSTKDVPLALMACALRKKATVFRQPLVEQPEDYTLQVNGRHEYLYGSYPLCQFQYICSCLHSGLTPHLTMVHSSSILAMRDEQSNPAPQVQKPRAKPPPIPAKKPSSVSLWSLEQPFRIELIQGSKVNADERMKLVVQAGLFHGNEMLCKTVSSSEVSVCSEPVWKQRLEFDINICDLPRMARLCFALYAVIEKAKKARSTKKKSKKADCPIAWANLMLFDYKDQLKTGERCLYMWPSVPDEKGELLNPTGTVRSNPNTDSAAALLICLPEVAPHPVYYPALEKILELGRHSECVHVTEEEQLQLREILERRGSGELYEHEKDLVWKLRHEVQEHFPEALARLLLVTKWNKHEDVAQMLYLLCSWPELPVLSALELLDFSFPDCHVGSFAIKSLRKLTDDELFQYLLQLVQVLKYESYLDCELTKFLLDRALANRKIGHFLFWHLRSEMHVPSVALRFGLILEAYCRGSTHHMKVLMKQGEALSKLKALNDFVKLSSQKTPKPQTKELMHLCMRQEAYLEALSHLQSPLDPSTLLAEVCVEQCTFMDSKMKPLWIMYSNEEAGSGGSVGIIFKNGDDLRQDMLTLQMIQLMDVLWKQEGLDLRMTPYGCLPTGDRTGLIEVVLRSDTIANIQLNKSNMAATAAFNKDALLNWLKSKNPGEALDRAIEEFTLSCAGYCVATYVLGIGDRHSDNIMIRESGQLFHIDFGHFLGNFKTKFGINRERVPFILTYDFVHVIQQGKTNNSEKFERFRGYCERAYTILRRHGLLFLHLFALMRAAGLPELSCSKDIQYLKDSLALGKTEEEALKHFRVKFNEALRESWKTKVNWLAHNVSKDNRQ
T1 sequence (P27986 whole entry partner, canonical isoform): as the sequence (P27986 whole entry partner, canonical isoform) above

Row | Structure (SMILES) | IC50 (PI3K-delta) | Selectivity versus PI3Kalpha (PI3K-alpha)
1 | CCn1c(-c2cnc(C)nc2)nc2c(N[C@H]3CCN(C(=O)C4CCC(=O)N4)C3)ncnc21 (mixture of isomers) [Compound 2-64, (R and S)-5-{[(3S)-3-{[9-ethyl-8-(2-methylpyrimidin-5-yl)-9H-purin-6-yl]amino}pyrrolidin-1-yl]carbonyl}pyrrolidin-2-one] | 6.7 nM | >10
2 | CCn1c(C(C)(C)C)nc2c(N[C@H]3CCN(C(=O)C4CC4)C3)ncnc21 [Compound 7-24, 8-tert-butyl-N-[(3S)-1-(cyclopropylcarbonyl)pyrrolidin-3-yl]-9-ethyl-9H-purin-6-amine] | 150 nM | >10
3 | CCn1c(-c2cnc(C)nc2)nc2c(N[C@H]3CCN(C(=O)CN(C)C)C3)ncnc21 [Compound 2-31, N-{(3S)-1-[(dimethylamino)acetyl]pyrroli-din-3-yl}-9-ethyl-8-(2-methylpyrimidin-5-yl)-9H-purin-6-amine] | 10 nM | >10
4 | CCn1c(-c2cnc(C)nc2)nc2c(N[C@H]3CCN(C(=O)OC)C3)ncnc21 [Compound 13-2, methyl (3S)-3-{[9-ethyl-8-(2-methylpyrimidin-5-yl)-9H-purin-6-yl]amino}pyrrolidine-l-carboxylate] | 9.2 nM | >10
5 | CCn1c(-c2cnc(C)nc2)nc2c(N[C@H]3CCN(C(=O)[C@H]4C[C@@H]4C)C3)ncnc21 [Compound 2-93, 9-ethyl-N-[(3S)-1-{[(1S,2S)-2-methylcyclopropyl]carbonyl}pyrrolidin-3-yl]-8-(2-methylpyrimidin-5-yl)-9H-purin-6-amine] | 11.2 nM | >10
6 | CCn1c(C(F)F)nc2c(N[C@H]3CCN(C(=O)C4CC4)C3)ncnc21 [Compound 7-14, N-[(3S)-1-(cyclopropylcarbonyl)pyrrolidin-3-yl]-8-(difluoromethyl)-9-ethyl-9H-purin-6-amine] | 22 nM | >10
7 | CCC(C)OC(=O)N1CC[C@H](Nc2ncnc3c2nc(-c2cnc(C)nc2)n3CC)C1 (mixture of isomers) [Compound 13-9, (S and R)-1-methylpropyl (3S)-3-{[9-ethyl-8-(2-methylpyrimidin-5-yl)-9H-purin-6-yl]amino}pyrrolidine-1-carboxylate] | 3.5 nM | >10
8 | CCn1c(-c2cnc(C)nc2)nc2c(N[C@H]3CCN(C(=O)C4CCC4)C3)ncnc21 [Compound 2-22, (S)-cyclobutyl(3-((9-ethyl-8-(2-methylpyrimidin-5-yl)-9H-purin-6-yl)amino)pyrrolidin-1-yl)methanone] | 1.7 nM | >10
9 | CCn1c(C(F)F)nc2c(N[C@H]3CCN(C(=O)C4CCC4)C3)ncnc21 [Compound 7-15, N-[(3S)-1-(cyclobutylcarbonyl)pyrrolidin-3-yl]-8-(difluoromethyl)-9-ethyl-9H-purin-6-amine] | 7.6 nM | >10
10 | CCn1c(CCCO)nc2c(N[C@H]3CCN(C(=O)C4CC4)C3)ncnc21 [Compound 7-6, 3-(6-{[(3S)-1-(cyclopropylcarbonyl)pyrrolidin-3-yl]amino}-9-ethyl-9H-purin-8-yl)propan-1-ol] | 110 nM | >10
11 | CCn1ncc(-c2nc3c(N[C@@H]4CCN(C(=O)OC(C)(C)C)C4)ncnc3n2C)c1C [Compound 1-1, tert-butyl (3R)-3-{[8-(1-ethyl-5-methyl-1H-pyrazol-4-yl)-9-methyl-9H-purin-6-yl]amino}pyrrolidine-1-carboxylate] | 15 nM | >10
12 | CCn1c(-n2cnc3c2CCCC3)nc2c(N[C@H]3CCN(C(=O)C4CC4)C3)ncnc21 [Compound 8-8, N-[(3S)-1-(cyclopropylcarbonyl)pyrrolidin-3-yl]-9-ethyl-8-(4,5,6,7-tetrahydro-1H-benzimidazol-1-yl)-9H-purin-6-amine] | < 1 nM | >10
13 | CCCn1c(-c2cnn(CC)c2C)nc2c(N[C@H]3CCN(C(=O)CC)C3)ncnc21 [Compound 9-1, 8-(1-ethyl-5-methyl-1H-pyrazol-4-yl)-N-[(3S)-1-propanoylpyrrolidin-3-yl]-9-propyl-9H-purin-6-amine] | 20 nM | >10
14 | CCn1c(-c2cnc(C)nc2)nc2c(N[C@H]3CCN(C(=O)NC(C)C)C3)ncnc21 [Compound 12-19, (3S)-3-{[9-ethyl-8-(2-methylpyrimidin-5-yl)-9H-purin-6-yl]amino}-N-(1-methylethyl)pyrrolidine-l-carboxamide] | 13 nM | >10
15 | CCn1c(-c2cnc(C)nc2)nc2c(N[C@H]3CCN(C(=O)NCC(F)(F)F)C3)ncnc21 [Compound 12-8, (3S)-3-{[9-ethyl-8-(2-methylpyrimidin-5-yl)-9H-purin-6-yl]amino}-N-(2,2,2-trifluoroethyl)pyrrolidine-1-carboxamide] | 9.7 nM | >10
16 | CCn1c(-c2cnc(C)nc2)nc2c(N[C@H]3CCN(C(=O)C4(COC)CC4)C3)ncnc21 [Compound 2-61, 9-ethyl-N-[(3S)-1-{[1-(methoxymethyl)cyclopropyl]carbonyl}pyrrolidin-3-yl]-8-(2-methylpyrimidin-5-yl)-9H-purin-6-amine] | 23 nM | >10
17 | CCn1c(-c2cnc(C)nc2)nc2c(NC3(C)CCN(C(=O)C4CC4)C3)ncnc21 (racemic) [Compound 3-18, N-[(R and S)-1-(cyclopropylcarbonyl)-3-methylpyrrolidin-3-yl]-9-ethyl-8-(2-methylpyrimidin-5-yl)-9H-purin-6-amine] | 2.6 nM | >10
18 | CCn1c(-c2cnc(C)nc2)nc2c(N[C@H]3C[C@H](C(=O)NC(C)C)N(C(=O)C4CC4)C3)ncnc21 [Compound 15-4, (4S)-1-(cyclopropylcarbonyl)-4-{[9-ethyl-8-(2-methylpyrimidin-5-yl)-9H-purin-6-yl]amino}-N-(1-methylethyl)-D-prolinamide] | 15 nM | >10
19 | CCn1c(CCOC)nc2c(N[C@H]3CCN(C(=O)C4CC4)C3)ncnc21 [Compound 7-22, N-[(3S)-1-(cyclopropylcarbonyl)pyrrolidin-3-yl]-9-ethyl-8-(2-methoxyethyl)-9H-purin-6-amine] | 230 nM | >10
20 | CCn1c(-c2cnc(C)nc2)nc2c(N[C@H]3CCN(C(=O)NCc4ccco4)C3)ncnc21 [Compound 12-21, (3S)-3-{[9-ethyl-8-(2-methylpyrimidin-5-yl)-9H-purin-6-yl]amino}-N-(furan-2-ylmethyl)pyrrolidine-1-carboxamide] | 7 nM | >10
21 | CCC(=O)N1CC[C@H](Nc2ncnc3c2nc(-c2ncn(CC)c2C)n3C)C1 [Compound 3-12, 8-(1-ethyl-5-methyl-1H-imidazol-4-yl)-9-methyl-N-[(3S)-1-propanoylpyrrolidin-3-yl]-9H-purin-6-amine] | 690 nM | >10
22 | CCn1c(Oc2ccccc2)nc2c(N[C@H]3CCN(C(=O)C4CC4)C3)ncnc21 [Compound 8-5, N-[(3S)-1-(cyclopropylcarbonyl)pyrrolidin-3-yl]-9-ethyl-8-phenoxy-9H-purin-6-amine] | 23 nM | >10
23 | CCn1c(C(F)F)nc2c(N[C@H]3CCN(C(=O)[C@H]4C[C@@H](OC)C4)C3)ncnc21 [Compound 7-18, 8-(difluoromethyl)-9-ethyl-N-{(3S)-1-[(cis-3-methoxycyclobutyl)carbonyl]pyrrolidin-3-yl}-9H-purin-6-amine] | 11 nM | >10
24 | CCn1c(-c2cnc(C)nc2)nc2c(NC3CN(C(=O)C4CC4)CC3O)ncnc21 (single isomer, unassigned) [Compound 2-97, 1-(cyclopropylcarbonyl)-4-{(3R,4R) or (3S,4S)-[9-ethyl-8-(2-methylpyrimidin-5-yl)-9H-purin-6-yl]amino}pyrrolidin-3-ol] | 2.9 nM | >10
25 | CCn1c(COC)nc2c(N[C@H]3CCN(C(=O)C4CC4)C3)ncnc21 [Compound 7-8, N-[(3S)-1-(cyclopropylcarbonyl)pyrrolidin-3-yl]-9-ethyl-8-(methoxymethyl)-9H-purin-6-amine] | 190 nM | >10
26 | CCC(=O)N1CC[C@H](Nc2ncnc3c2nc(-c2cnc(OC)c(C)c2)n3CC)C1 [Compound 2-9, (S)-1-(3-((9-ethyl-8-(6-methoxy-5-methylpyridin-3-yl)-9H-purin-6-yl)amino)pyrrolidin-1-yl)propan-1-one] | < 1 nM | >10
27 | CCn1c(C(=O)NC(C)(C)C)nc2c(N[C@H]3CCN(C(=O)C4CC4)C3)ncnc21 [Compound 6-16, N-tert-butyl-6-{[(3S)-1-(cyclopropylcarbonyl)pyrrolidin-3-yl]amino}-9-ethyl-9H-purine-8-carboxamide] | 20 nM | >10
28 | CCn1c(-c2cnc(C)nc2)nc2c(N[C@H]3CCN(C(=O)N4CCC4C)C3)ncnc21 (mixture of isomers) [Compound 12-3, 9-ethyl-N-{(3S)-1-[((S and R)-2-methylazetidin-1-yl)carbonyl]pyrrolidin-3-yl}-8-(2-methylpyrimidin-5-yl)-9H-purin-6-amine] | 1.6 nM | >10
29 | CCn1c(-c2cnc(C)nc2)nc2c(N[C@H]3CCN(C(=O)OC(C)C)C3)ncnc21 [Compound 13-5, 1-methylethyl (3S)-3-{[9-ethyl-8-(2-methylpyrimidin-5-yl)-9H-purin-6-yl]amino}pyrrolidine-1-carboxylate] | 6.2 nM | >10
